Holding throughout (format): in vivo
Experiment [1] deals with Okra Jassids (Amrasca bigutulla bigutulla). The conditions noted are these: for Percent control (%) of Okra Jassids, Nymphs + Adults, A01: A01 = 1 day after first spray; for Percent control (%) of Okra Jassids, Nymphs + Adults, A10: A10 (after 1st spray); for Percent control (%) of Okra Jassids, Nymphs + Adults, B03: B03 = 3 days after 2nd spray; for Percent control (%) of Okra Jassids, Nymphs + Adults, B07: B07 (after 2nd spray); for Percent control (%) of Okra Jassids, Nymphs + Adults, B10: B10 (after 2nd spray); for Percent control (%) of Okra Jassids, Nymphs + Adults, B14: B14 (after 2nd spray); for Percent control (%) of Okra Jassids, Nymphs + Adults, C03: C03 = 3 days after third spray; for Percent control (%) of Okra Jassids, Nymphs + Adults, C10: C10 (after third spray). An excerpt:
(§1) In this evaluation, feeding damage & insect population on Okra Leaves before and after sprays is averaged and analyzed for the test of significance. Application method: Three applications (application A, B and C) within an interval of 14 days.

Experiment [2] has as its system Okra Aphids (Aphis gossypii). Conditions: for Percent control (%) of Okra Aphids, Nymphs + Adults, A01: A01 = 1 day after first spray; for Percent control (%) of Okra Aphids, Nymphs + Adults, B03: B03 = 3 days after 2nd spray; for Percent control (%) of Okra Aphids, Nymphs + Adults, B07: B07 (after 2nd spray); for Percent control (%) of Okra Aphids, Nymphs + Adults, B10: B10 (after 2nd spray); for Percent control (%) of Okra Aphids, Nymphs + Adults, C03: C03 = 3 days after third spray; for Percent control (%) of Okra Aphids, Nymphs + Adults, C10: C10 (after third spray).
Text: as §1

Experiment [3] has as its system Corn FAW (Spodoptera frugiperda). Conditions: for Percent control (%) A01: A01 = 1 day after first spray; for Percent control (%) A14: A14 = 14 days after 1st spray; for Percent control (%) B03: B03 = 3 days after 2nd spray; for Percent control (%) B07: B07 (after 2nd spray); for Percent control (%) B10: B10 (after 2nd spray); for Percent control (%) B21: B21 (after 2nd spray). The source says:
Application method: Two applications (application A and B) within an interval of 14 days. A01=1 day after first spray, A14=14 days after 1st spray, B03=3 days after 2nd spray.

The mark [4] stands for this setting: 25% reduced dose rate, gm a.i./ha: OSA 25, Flonicamid 75, Acephate+Imidacloprid 390, Flonicamid+Fipronil 75+37.5, Imidacloprid 18.3, Acetamiprid 11.2.
Setting [5] is: doses gm a.i./ha: OSA 25, Flonicamid 100, Acephate+Imidacloprid 520, Flonicamid+Fipronil 100+50, Imidacloprid 24.5, Acetamiprid 15.
Where [6] appears, read: reduced insecticide dose, gm a.i./ha: OSA 25, Flonicamid (Ulala) 75, Acephate+Imidacloprid 390, Flonicamid+Fipronil 75+37.5, Imidacloprid 18.3, Acetamiprid 11.2.
Setting [7] is: 25% reduced dose of insecticide, gm a.i./ha: OSA 25, CTPR 22.5, Acephate 730, Novaluron 56, Novaluron+Lambda cyhalothrin 67.5, Novaluron+Emamectin 93.5.
The mark [8] stands for this setting: doses gm a.i./ha: OSA 25, CTPR 30, Acephate 970, Novaluron 75, Novaluron+Lambda cyhalothrin 90, Novaluron+Emamectin 125.

Like-named read-outs stand apart in the source and are kept apart here.

Results on four compounds are retold here after patent US20220322673A1, “Novel Agrochemical Combinations” (UPL LIMITED, priority 2019, published 2022).

Regarding `O=[N+]([O-])NC1=NCCN1Cc1ccc(Cl)nc1` [Imidacloprid], in experiment [1] (setting [4]), the “Percent control (%) of Okra Jassids, Nymphs + Adults, A01” value was 56%; the “Percent control (%) of Okra Jassids, Nymphs + Adults, A10” value came to 59.1%; the “Percent control (%) of Okra Jassids, Nymphs + Adults, B03” value worked out at 61.5%; the “Percent control (%) of Okra Jassids, Nymphs + Adults, B07” value worked out at 62.5%. Also, in experiment [1] (setting [4]), the “Percent control (%) of Okra Jassids, Nymphs + Adults, B10” value is 63.5%; the “Percent control (%) of Okra Jassids, Nymphs + Adults, B14” value was 62.4%; the “Percent control (%) of Okra Jassids, Nymphs + Adults, C03” value is recorded as 64.6%; the “Percent control (%) of Okra Jassids, Nymphs + Adults, C10” value came to 66.1%. Also, in experiment [1] (setting [5]), the “Percent control (%) of Okra Jassids, Nymphs + Adults, A01” value is listed as 59.9%; the “Percent control (%) of Okra Jassids, Nymphs + Adults, A10” value was found to be 64.6%; the “Percent control (%) of Okra Jassids, Nymphs + Adults, B03” value is reported as 68.5%; the “Percent control (%) of Okra Jassids, Nymphs + Adults, B07” value is 71.7%. Moreover, in experiment [1] (setting [5]), the “Percent control (%) of Okra Jassids, Nymphs + Adults, B10” value is 70.5%; the “Percent control (%) of Okra Jassids, Nymphs + Adults, B14” value is 66.2%; the “Percent control (%) of Okra Jassids, Nymphs + Adults, C03” value turned out to be 68.0%; the “Percent control (%) of Okra Jassids, Nymphs + Adults, C10” value is recorded as 73.0%. Also, in experiment [2] (setting [5]), the “Percent control (%) of Okra Aphids, Nymphs + Adults, A01” value was 66.9%; the “Percent control (%) of Okra Aphids, Nymphs + Adults, B03” value is listed as 80.7%; the “Percent control (%) of Okra Aphids, Nymphs + Adults, B07” value amounted to 82.7%; the “Percent control (%) of Okra Aphids, Nymphs + Adults, B10” value is recorded as 82.2%. In addition, in experiment [2] (setting [5]), the “Percent control (%) of Okra Aphids, Nymphs + Adults, C03” value is given as 81.3% and the “Percent control (%) of Okra Aphids, Nymphs + Adults, C10” value worked out at 82.6%. Besides, in experiment [2] (setting [6]), the “Percent control (%) of Okra Aphids, Nymphs + Adults, A01” value is on record as 62.7%; the “Percent control (%) of Okra Aphids, Nymphs + Adults, B03” value turned out to be 74.4%; the “Percent control (%) of Okra Aphids, Nymphs + Adults, B07” value came to 77.2%; the “Percent control (%) of Okra Aphids, Nymphs + Adults, B10” value is 79.1%. In experiment [2] (setting [6]), the “Percent control (%) of Okra Aphids, Nymphs + Adults, C03” value was found to be 75.4% and the “Percent control (%) of Okra Aphids, Nymphs + Adults, C10” value is given as 78%. Also, the “Percent control (%) of Okra Aphids, Nymphs + Adults, A10” value in experiment [2] (A10 (after 1st spray), doses gm a.i./ha: OSA 25, Flonicamid 100, Acephate+Imidacloprid 520, Flonicamid+Fipronil 100+50, Imidacloprid 24.5, Acetamiprid 15) amounted to 82%. Moreover, in experiment [2] (A14 = 14 days after 1st spray, reduced insecticide dose, gm a.i./ha: OSA 25, Flonicamid (Ulala) 75, Acephate+Imidacloprid 390, Flonicamid+Fipronil 75+37.5, Imidacloprid 18.3, Acetamiprid 11.2), the “Percent control (%) of Okra Aphids, Nymphs + Adults, A14” value stood at 64.3%.
On to `O=C(NC(=O)c1c(F)cccc1F)Nc1ccc(OC(F)(F)C(F)OC(F)(F)F)c(Cl)c1` (racemic) [Novaluron, (±)-1-[3-chloro-4-(1,1,2-trifluoro-2-trifluoro-methoxyethoxy)phenyl]-3-(2,6-difluorobenzoyl)urea], for which, in experiment [3] (setting [7]), the “Percent control (%) A01” value turned out to be 59.3%, the “Percent control (%) A14” value was found to be 58.7%, the “Percent control (%) B03” value was 68.9% and the “Percent control (%) B07” value is recorded as 70.1%. For the same compound, in experiment [3] (setting [7]), the “Percent control (%) B10” value is 74.6% and the “Percent control (%) B21” value was 73.9%. Also, in experiment [3] (setting [8]), the “Percent control (%) A01” value was found to be 60.5%, the “Percent control (%) A14” value amounted to 72.5%, the “Percent control (%) B03” value stood at 79.9% and the “Percent control (%) B07” value worked out at 88.8%. For the same compound, in experiment [3] (setting [8]), the “Percent control (%) B10” value was 88.9% and the “Percent control (%) B21” value is 84.7%.
Regarding `CNC(=O)c1cc(Cl)cc(C)c1NC(=O)c1cc(Br)nn1-c1ncccc1Cl` [CTPR, Chlorantraniliprole], in experiment [3] (setting [7]), the “Percent control (%) A01” value amounted to 57.1%, the “Percent control (%) A14” value is recorded as 66.8%, the “Percent control (%) B03” value is recorded as 75% and the “Percent control (%) B07” value turned out to be 77.2%. Besides, in experiment [3] (setting [7]), the “Percent control (%) B10” value worked out at 76.2% and the “Percent control (%) B21” value was 74.6%. Further, in experiment [3] (setting [8]), the “Percent control (%) A01” value was 67.6%, the “Percent control (%) A14” value is 75.2%, the “Percent control (%) B03” value amounted to 79.9% and the “Percent control (%) B07” value is recorded as 86.8%. In experiment [3] (setting [8]), the “Percent control (%) B10” value was 88.9% and the “Percent control (%) B21” value worked out at 87.0%.
Consider `COP(=O)(NC(C)=O)SC` (stereo not drawn) [Acephate], for which, in experiment [3] (setting [7]), the “Percent control (%) A01” value was determined as 46.8%, the “Percent control (%) A14” value turned out to be 50.3%, the “Percent control (%) B03” value was 62.1% and the “Percent control (%) B07” value amounted to 63.9%. In experiment [3] (setting [7]), the “Percent control (%) B10” value was 64.1% and the “Percent control (%) B21” value was found to be 61.6%. Further, in experiment [3] (setting [8]), the “Percent control (%) A01” value stood at 58.1%, the “Percent control (%) A14” value is on record as 69.7%, the “Percent control (%) B03” value is 76.4% and the “Percent control (%) B07” value was 80.5%. In experiment [3] (setting [8]), the “Percent control (%) B10” value came to 83.2% and the “Percent control (%) B21” value was found to be 80.3%.
